In patent US20240417410A1, “TRICYCLIC COMPOUNDS FOR THE TREATMENT OF CANCER” (Hoffmann-La Roche Inc., priority 2023, published 2024):

Legend:
[1] = test system: NCI-H358 cells (KRAS G12C); experiment: Cell viability assay (Cell Counting Kit-8, 3-day); type: cell-based, human; settings: Homo sapiens, NCI-H358, 72 h, NCI-H358, 72 hrs incubation
Procedure: (§1) The purpose of this cellular assay was to determine the effects of test compounds on the proliferation of human cancer cell lines NCI-H358 (ATCC-CRL5807) cells, AGS (ATCC-CRL-1739) cells, SW620 (ATCC-CCL-227) over a 3-day treatment period by quantifying the amount of NADPH present at endpoint using Cell Counting Kit-8.
(§2) Cells were seeded at 5,000 cells/well (NCI-H358), 2,000 cells/well (AGS) 2,000 cells/well (SW620) in 96-well assay plates (Corning-3699) and incubated overnight. On the day of the assay, diluted compounds were then added in a final concentration of 0.5% DMSO. After 72 hrs incubation, a tenth of the volume of cell counting kit 8 (Dnjindo-CK04) was added into each well. Read the signal (OD450 minus OD650) using EnVision after 2 hrs incubation. IC50 was determined by fitting a 4-parameter sigmoidal concentration response model.

AGS cells (KRAS G12D) = experiment: Cell viability assay (Cell Counting Kit-8, 3-day); type: cell-based, human; settings: Homo sapiens, 72 h, 72 hrs incubation
Procedure: as §1, §2

SW620 cells (KRAS G12V) = experiment: Cell viability assay (Cell Counting Kit-8, 3-day); type: cell-based, human; settings: Homo sapiens, SW-620; SW620, 72 hrs incubation
Procedure: as §1, §2

[2] = test system: phosphorylation of ERK, KRAS G12V in SW620; experiment: pERK inhibition assay; type: cell-based; settings: Homo sapiens, SW-620, 4 h, SW620 cells
Procedure: (§3) This assay is to measure the ability of test compounds in inhibiting the phosphorylation of ERK, the downstream signaling of KRAS G12C in NCI-H358 cells, KRAS G12D in AGS cells, and KRAS G12V in SW620. NCI-H358 (ATCC-CRL5807) cells, AGS (ATCC-CRL-1739) cells, SW620 (ATCC-CCL-227) cells were all grown and maintained using RPMI-1640 medium (Thermo Fisher Scientific) with 10% fetal bovine serum and 1% penicillin/streptomycin. On the day prior to compound addition, cells were plated in tissue culture-treated 96 well plates (Corning-3699) at a density of 30,000 cell/well, 20,000 cell/well, 30,000 cell/well for NCI-H358, AGS and SW620 respectively, and allowed for attachment overnight. Diluted compounds were then added in a final concentration of 0.5% DMSO. After 4 hours of incubation, the medium was removed, 100 μL of 4% formaldehyde was added, and the assay plates were incubated at room temperature for 20 minutes. The plates were then washed once with phosphate buffered saline (PBS), and permeabilized with 100 μL of chilled methanol for 10 minutes. Non-specific antibody binding to the plates was blocked using 50 μL 1X BSA blocking buffer (Thermo-37520, 10-fold dilution by Phosphate-Buffered Saline Tween (PBST) for at least 1 hour at room temperature.
(§4) The amount of phosphor-ERK was determined using an antibody specific for phosphorylated form of ERK. Primary antibody (PERK, CST-4370, Cell Signaling Technology) was diluted 1:300 in blocking buffer, with 50 μL aliquoted to each well, and incubated overnight at 4° C. Cells was washed five times for 5 minutes with PBST. Secondary antibody (HRP-linked anti-rabbit IgG, CST-7074, Cell Signaling Technology) was diluted 1:1000 in blocking buffer, and 50 μL was added to each well and incubated 1-2 hrs at room temperature. Cells was washed […] for 5 minutes with PBST, 100 μL TMB ELISA substrate (abcam-ab171523) were added and gently shake for 20 minutes. 50 μL stop solution (abcam-ab 171529) were added, and then read the signal (OD450) by EnVision.
(§5) IC50 was determined by fitting a 4-parameter sigmoidal concentration response model.

[3] = test system: phosphorylation of ERK, KRAS G12C in NCI-H358 cells; experiment: pERK inhibition assay; type: cell-based; settings: Homo sapiens, NCI-H358, 4 h
Procedure: as §3, §4, §5

[4] = test system: phosphorylation of ERK, KRAS G12D in AGS cells; experiment: pERK inhibition assay; type: cell-based; settings: Homo sapiens, AGS, 4 h
Procedure: as §3, §4, §5

`CO[C@@H](C)c1ncc(N2CCN(C)CC2)cc1-c1c2c3cc(cc4c3n1CC(F)(F)C4)-c1csc(n1)C[C@H](NC(=O)[C@H]1C[C@@H]1C(F)F)C(=O)N1CCC[C@H](N1)C(=O)OCC(C)(C)C2` (atropisomer, axis not shown; (M)) [Example 31] showed an IC50 [1] of 3.1 nM, an IC50 (AGS cells (KRAS G12D)) of 21.8 nM and an IC50 (SW620 cells (KRAS G12V)) of less than 0.6 nM. For the same compound, the IC50 [2] was 1.6 nM, the IC50 [3] was 2.3 nM and the IC50 [4] was 19.8 nM.
`CO[C@@H](C)c1ncc(N2CCOCC2)cc1-c1c2c3cc(cc4c3n1CC(C)(C)O4)-c1csc(n1)C[C@H](NC(=O)[C@H]1C[C@@H]1C)C(=O)N1CCC[C@H](N1)C(=O)OCC(C)(C)C2` (atropisomer, axis not shown; (M)) [Example 38, (1S,2S)-N-[(7S,13S)-(20M)-20-[2-[(1S)-1-methoxyethyl]-5-morpholino-3-pyridyl]-17,17,23,23-tetramethyl-8,14-dioxo-15,24-dioxa-4-thia-9,21,30,31-tetrazahexacyclo[23.3.1.1^2,5.1^9,13.0^19,27.0^21,26]hentriaconta-1 (28),2,5 (31),19,25 (29),26-hexaen-7-yl]-2-methyl-cyclopropanecarboxamide] gave an IC50 [1] of 89.4 nM, an IC50 (AGS cells (KRAS G12D)) of 120 nM and an IC50 (SW620 cells (KRAS G12V)) of 18 nM. It also gave an IC50 [2] of 5.5 nM, an IC50 [3] of 8 nM and an IC50 [4] of 59.4 nM.
`CO[C@@H](C)c1ncc(N2CCOCC2)cc1-c1c2c3cc(cc4c3n1CCO4)-c1csc(n1)C[C@H](NC(=O)[C@H]1C[C@@H]1c1ccccc1)C(=O)N1CCC[C@H](N1)C(=O)OCC(C)(C)C2` (atropisomer, axis not shown; (M)) [Example 43, (1S,2S)-N-[(7S,13S)-(20M)-20-[2-[(1S)-1-methoxyethyl]-5-morpholino-3-pyridyl]-17,17-dimethyl-8,14-dioxo-15,24-dioxa-4-thia-9,21,30,31-tetrazahexacyclo[23.3.1.1^2,5.1^9,13.0^19,27.0^21,26]hentriaconta-1 (29),2,5 (31), 19,25,27-hexaen-7-yl]-2-phenyl-cyclopropanecarboxamide] was tested, and the IC50 [1] was 3.6 nM, the IC50 (AGS cells (KRAS G12D)) was 11.9 nM and the IC50 (SW620 cells (KRAS G12V)) was 0.9 nM. For the same compound, the IC50 [2] was 0.3 nM, the IC50 [3] was 0.7 nM and the IC50 [4] was 3.8 nM.
`CO[C@@H](C)c1ncc(N2CCN(CC(F)(F)F)CC2)cc1-c1c2c3cc(cc4c3n1CCO4)-c1csc(n1)C[C@H](NC(=O)[C@H]1C[C@@H]1c1ccccc1)C(=O)N1CCC[C@H](N1)C(=O)OCC(C)(C)C2` (atropisomer, axis not shown; (M)) [Example 44, (1S,2S)-N-[(7S,13S)-(20M)-20-[2-[(1S)-1-methoxyethyl]-5-[4-(2,2,2-trifluoroethyl)piperazin-1-yl]-3-pyridyl]-17,17-dimethyl-8,14-dioxo-15,24-dioxa-4-thia-9,21,30,31-tetrazahexacyclo[23.3.1.1^2,5.1^9,13.0^19,27.0^21,26]hentriaconta-1 (29),2,5 (31),19,25,27-hexaen-7-yl]-2-phenyl-cyclopropanecarboxamide] showed an IC50 [1] of 16.8 nM, an IC50 (AGS cells (KRAS G12D)) of 33.9 nM and an IC50 (SW620 cells (KRAS G12V)) of 3.1 nM. The IC50 [2] was 1.4 nM, the IC50 [3] was 2.1 nM and the IC50 [4] was 9.1 nM.
In the case of `CO[C@@H](C)c1ncc(N2CCOCC2)cc1-c1c2c3cc(cc4c3n1CCC4)-c1csc(n1)C[C@H](NC(=O)[C@H]1C[C@@H]1c1ccccc1)C(=O)N1CCC[C@H](N1)C(=O)OCC(C)(C)C2` (atropisomer, axis not shown; (M)) [Example 46, (1S,2S)-N-[(7S,13S)-(20M)-20-[2-[(1S)-1-methoxyethyl]-5-morpholino-3-pyridyl]-17,17-dimethyl-8,14-dioxo-15-oxa-4-thia-9,21,30,31-tetrazahexacyclo[23.3.1.1^2,5.1^9,13.0^19,27.0^21,26]hentriaconta-1 (29),2,5 (31), 19,25,27-hexaen-7-yl]-2-phenyl-cyclopropanecarboxamide], the IC50 [1] is reported as 8.1 nM, the IC50 (AGS cells (KRAS G12D)) is reported as 32.2 nM and the IC50 (SW620 cells (KRAS G12V)) is reported as 2.4 nM. It also gave an IC50 [2] of 1 nM, an IC50 [3] of 0.9 nM and an IC50 [4] of 9.1 nM.
Compound `CO[C@@H](C)c1ncc(N2CCN(CC(F)(F)F)CC2)cc1-c1c2c3cc(cc4c3n1CC(F)(F)C4)-c1csc(n1)C[C@H](NC(=O)[C@H]1C[C@@H]1C)C(=O)N1CCC[C@H](N1)C(=O)OCC(C)(C)C2` (atropisomer, axis not shown; (M)) [Example 67, (1S,2S)-N-[(7S,13S)-23,23-difluoro-(20M)-20-[2-[(1S)-1-methoxyethyl]-5-[4-(2,2,2-trifluoroethyl)piperazin-1-yl]-3-pyridyl]-17,17-dimethyl-8,14-dioxo-15-oxa-4-thia-9,21,30,31-tetrazahexacyclo[23.3.1.1^2,5.1^9,13.0^19,27.0^21,26]hentriaconta-1 (28),2,5 (31),19,25 (29),26-hexaen-7-yl]-2-methyl-cyclopropanecarboxamide] has an IC50 [2] of 3.2 nM, an IC50 [3] of 2.4 nM and an IC50 [4] of 31.8 nM.
Compound `CO[C@@H](C)c1ncc(N2CCN(C)CC2)cc1-c1c2c3cc(cc4c3n1CCC4)-c1csc(n1)C[C@H](NC(=O)[C@H]1CC[C@H](c3nnnn3C)CC1)C(=O)N1CCC[C@H](N1)C(=O)OCC(C)(C)C2` (atropisomer, axis not shown; (M)) [Example 70, trans-N-[(7S,13S)-(20M)-20-[2-[(1S)-1-methoxyethyl]-5-(4-methylpiperazin-1-yl)-3-pyridyl]-17,17-dimethyl-8,14-dioxo-15-oxa-4-thia-9,21,30,31-tetrazahexacyclo[23.3.1.1^2,5.1^9,13.0^19,27.0^21,26]hentriaconta-1 (29),2,5 (31),19,25,27-hexaen-7-yl]-4-(1-methyltetrazol-5-yl)cyclohexanecarboxamide] has an IC50 [1] of 24.7 nM, an IC50 (AGS cells (KRAS G12D)) of 98.7 nM and an IC50 (SW620 cells (KRAS G12V)) of 17.9 nM. It also gave an IC50 [2] of 5.5 nM, an IC50 [3] of 1.8 nM and an IC50 [4] of 27.9 nM.
`CO[C@@H](C)c1ncc(N2CCN(C)CC2)cc1-c1c2c3cc(cc4c3n1CC(F)(F)C4)-c1csc(n1)C[C@H](NC(=O)[C@H]1C[C@@H]1c1ccccc1)C(=O)N1CCC[C@H](N1)C(=O)OCC(C)(C)C2` (atropisomer, axis not shown; (M)) [Example 78] gave an IC50 [1] of 9.8 nM, an IC50 (AGS cells (KRAS G12D)) of 30.6 nM and an IC50 (SW620 cells (KRAS G12V)) of 2.3 nM. For the same compound, the IC50 [2] was 1.1 nM, the IC50 [3] was 2 nM and the IC50 [4] was 10.1 nM.
`CO[C@@H](C)c1ncc(N2CCN(C)CC2)cc1-c1c2c3cc(cc4c3n1CCC4)-c1csc(n1)C[C@H](NC(=O)[C@H]1C[C@@H]1c1ncccn1)C(=O)N1CCC[C@H](N1)C(=O)OCC(C)(C)C2` [Example 80, (1S,2S)-N-[(7S,13S)-(20M)-20-[2-[(1S)-1-methoxyethyl]-5-(4-methylpiperazin-1-yl)-3-pyridyl]-17,17-dimethyl-8,14-dioxo-15-oxa-4-thia-9,21,30,31-tetrazahexacyclo[23.3.1.1^2,5.1^9,13.0^19,27.0^21,26]hentriaconta-1 (28),2,5 (31), 19,25 (29),26-hexaen-7-yl]-2-pyrimidin-2-yl-cyclopropanecarboxamide] showed an IC50 [2] of 4.2 nM, an IC50 [3] of 5.1 nM and an IC50 [4] of 47.4 nM.
